Assay results reported in the NIST ThermoML archive (doi:10.1016/j.fluid.2019.112248).
Values joined by “and” are separate entries in the source; they are usually repeats but may differ in a detail not shown here. Identical values can stand only once.

Experiments:
[1] = Boiling temperature at pressure P; settings: 100 kPa; Glass; DTA
[2] = Molar enthalpy of transition or fusion; settings: DSC
[3] = for vapor or sublimation pressure: Liquid, Closed cell (Static) method; for Normal melting temperature: DTA
[4] = molar heat capacity at constant pressure; settings: 101.33 kPa, Liquid, DSC

C=CCc1ccc(O)c(OC)c1 [2-hydroxy-5-allylanisole]
Settings	Boiling temperature at pressure P [°C]
[1]	-81.7

Settings	Molar enthalpy of transition or fusion [kcal/mol]	Normal melting temperature [°C]	molar heat capacity at constant pressure [J/K/mol]	vapor or sublimation pressure
[2], Crystal 1	4.06	–	–	–
[2], Crystal 2	2.01	–	–	–
[3], 273.7 K	–	–	–	0.000153 kPa and 0.000152 kPa
[3], 278.19 K	–	–	–	0.000252 kPa and 0.000251 kPa
[3], 283.19 K	–	–	–	0.000451 kPa and 0.000443 kPa and 0.000444 kPa
[3], 288.19 K	–	–	–	0.000724 kPa and 0.000725 kPa and 0.000723 kPa
[3], 293.2 K	–	–	–	0.001256 kPa and 0.001233 kPa and 0.001223 kPa
[3], 298.2 K	–	–	–	0.00193 kPa and 0.001938 kPa and 0.001934 kPa
[3], 303.2 K	–	–	–	0.00307 kPa and 0.003081 kPa and 0.003077 kPa
[3], 308.2 K	–	–	–	0.004871 kPa
[3], 308.21 K	–	–	–	0.004864 kPa and 0.004868 kPa
[3], Crystal 1	–	-11.3	–	–
[3], Crystal 2	–	-28.5	–	–
[4], 265 K	–	–	311.2	–
[4], 270 K	–	–	312.8	–
[4], 275 K	–	–	314.5	–
[4], 280 K	–	–	315.8	–
[4], 285 K	–	–	317.4	–
[4], 290 K	–	–	319.2	–
[4], 295 K	–	–	321	–
[4], 300 K	–	–	322.9	–
[4], 305 K	–	–	324.8	–
[4], 310 K	–	–	326.4	–
[4], 315 K	–	–	328.2	–
[4], 320 K	–	–	329.9	–
[4], 325 K	–	–	331.7	–
[4], 330 K	–	–	333.3	–
[4], 335 K	–	–	334.8	–
[4], 340 K	–	–	336.1	–
[4], 345 K	–	–	337.1	–
[4], 350 K	–	–	338.2	–
[4], 355 K	–	–	339.1	–

C=C(C)[C@H]1CC=C(C)C(=O)C1 [d-carvone]
Settings	Molar enthalpy of transition or fusion [kcal/mol]	Normal melting temperature [°C]	molar heat capacity at constant pressure [J/K/mol]	vapor or sublimation pressure
[2], Crystal	2.68	–	–	–
[3], 258.18 K	–	–	–	0.000197 kPa and 0.000202 kPa and 0.000201 kPa
[3], 263.19 K	–	–	–	0.000371 kPa and 0.000373 kPa
[3], 268.18 K	–	–	–	0.000653 kPa and 0.000656 kPa
[3], 268.19 K	–	–	–	0.000653 kPa
[3], 273.19 K	–	–	–	0.001096 kPa and 0.001097 kPa
[3], 273.69 K	–	–	–	0.001133 kPa and 0.001138 kPa
[3], 273.7 K	–	–	–	0.001141 kPa
[3], 278.19 K	–	–	–	0.001788 kPa and 0.001789 kPa and 0.00179 kPa
[3], 283.19 K	–	–	–	0.002902 kPa and 0.002899 kPa and 0.002893 kPa
[3], 288.19 K	–	–	–	0.004581 kPa
[3], 288.2 K	–	–	–	0.004579 kPa and 0.004587 kPa
[3], 293.2 K	–	–	–	0.007151 kPa and 0.007137 kPa
[3], 298.2 K	–	–	–	0.0109 kPa
[3], 298.21 K	–	–	–	0.0109 kPa
[3], 303.2 K	–	–	–	0.01637 kPa and 0.01638 kPa
[3], 308.21 K	–	–	–	0.02413 kPa and 0.02415 kPa
[3], Crystal	–	-26.4	–	–
[4], 265 K	–	–	264.9	–
[4], 270 K	–	–	266.7	–
[4], 275 K	–	–	268.7	–
[4], 280 K	–	–	270.6	–
[4], 285 K	–	–	272.9	–
[4], 290 K	–	–	275.2	–
[4], 295 K	–	–	277.7	–
[4], 300 K	–	–	280.3	–
[4], 305 K	–	–	282.7	–
[4], 310 K	–	–	284.9	–
[4], 315 K	–	–	287.1	–
[4], 320 K	–	–	289.5	–
[4], 325 K	–	–	292.1	–
[4], 330 K	–	–	294.3	–
[4], 335 K	–	–	296.5	–
[4], 340 K	–	–	298.2	–
[4], 345 K	–	–	299.7	–
[4], 350 K	–	–	301.1	–
[4], 355 K	–	–	302	–
